# Test results: patent EP2193713A1, “Method for fighting animal pests without damaging pollinating insects” (Bayer CropScience AG, priority 2008, dated 2010)
# Test system: Apis mellifera
# Test: Tunnel test / spray application / bees: foraging activity
# Type: in vivo
# Source text: Der Test wurde gemäß EPPO (European Plant Protection Organisation) Leitlinie 170 wie folgt durchgeführt:
# Während einer Minute werden in einem abgegrenzten Bereich von 2 x 1 m^2 die Bienen gezählt, die auf Blüten absitzen. Tabelle 3 (siehe auch Figur 3)
smiles,measurement,setting,value
"O=C1C=C(N(Cc2ccc(Cl)nc2)CC(F)F)CO1 [I-5, 4-{[(6-Chlorpyrid-3-yl)methyl](2,2-difluorethyl)amino}furan-2(5H)-on]","Aktivität der Nahrungssuche, Zahl der Bienen / min / m^2","75 g a.s./ha, 0 DAA a (09:30 Uhr)","25,5 Bienen / min / m^2"
same,"Aktivität der Nahrungssuche, Zahl der Bienen / min / m^2","75 g a.s./ha, 0 DAA c (14:15 Uhr)",41 Bienen / min / m^2
same,"Aktivität der Nahrungssuche, Zahl der Bienen / min / m^2","75 g a.s./ha, 0 DAA e (17:15 Uhr)","42,7 Bienen / min / m^2"
same,"Aktivität der Nahrungssuche, Zahl der Bienen / min / m^2","75 g a.s./ha, 1 DAA b (15:30 Uhr)","18,8 Bienen / min / m^2"
same,"Aktivität der Nahrungssuche, Zahl der Bienen / min / m^2","75 g a.s./ha, 2 DAA","33,3 Bienen / min / m^2"
same,"Aktivität der Nahrungssuche, Zahl der Bienen / min / m^2","75 g a.s./ha, 3 DAA","40,3 Bienen / min / m^2"
same,"Aktivität der Nahrungssuche, Zahl der Bienen / min / m^2","75 g a.s./ha, 6 DAA","37,8 Bienen / min / m^2"
same,"Aktivität der Nahrungssuche, Zahl der Bienen / min / m^2","75 g a.s./ha, -1 DAA (before application)","27,3 Bienen / min / m^2"
same,"Aktivität der Nahrungssuche, Zahl der Bienen / min / m^2","75 g a.s./ha, -2 DAA (before application)","34,8 Bienen / min / m^2"
same,"Aktivität der Nahrungssuche, Zahl der Bienen / min / m^2","75 g a.s./ha, -3 DAA (before application)","26,5 Bienen / min / m^2"
same,"Aktivität der Nahrungssuche, Zahl der Bienen / min / m^2","150 g a.s./ha, 0 DAA a (09:30 Uhr)","28,3 Bienen / min / m^2"
same,"Aktivität der Nahrungssuche, Zahl der Bienen / min / m^2","150 g a.s./ha, 0 DAA c (14:15 Uhr)","40,2 Bienen / min / m^2"
same,"Aktivität der Nahrungssuche, Zahl der Bienen / min / m^2","150 g a.s./ha, 0 DAA e (17:15 Uhr)",39 Bienen / min / m^2
same,"Aktivität der Nahrungssuche, Zahl der Bienen / min / m^2","150 g a.s./ha, 1 DAA b (15:30 Uhr)","19,2 Bienen / min / m^2"
same,"Aktivität der Nahrungssuche, Zahl der Bienen / min / m^2","150 g a.s./ha, 2 DAA","35,7 Bienen / min / m^2"
same,"Aktivität der Nahrungssuche, Zahl der Bienen / min / m^2","150 g a.s./ha, 3 DAA","39,3 Bienen / min / m^2"
same,"Aktivität der Nahrungssuche, Zahl der Bienen / min / m^2","150 g a.s./ha, 6 DAA","37,5 Bienen / min / m^2"
same,"Aktivität der Nahrungssuche, Zahl der Bienen / min / m^2","150 g a.s./ha, -1 DAA (before application)","26,3 Bienen / min / m^2"
same,"Aktivität der Nahrungssuche, Zahl der Bienen / min / m^2","150 g a.s./ha, -2 DAA (before application)","34,2 Bienen / min / m^2"
same,"Aktivität der Nahrungssuche, Zahl der Bienen / min / m^2","150 g a.s./ha, -3 DAA (before application)",27 Bienen / min / m^2
same,Aktivität der Nahrungssuche,"result in words, tunnel test, spray, I-5 75 und 150 g a.s./ha, Thiamethoxam 50 g a.s./ha directly after application",keine Änderung
